{
  "source": "patent US20180094320A1",
  "about": "“IN VITRO DRUG METABOLISM REAGENT AND USES THEREOF” (priority 2016, published 2018)",
  "key": {"human enterocytes": {"system": "human enterocytes", "experiment": "7-ethoxycoumarin O-deethylation (ECOD) activity in human enterocytes", "format": "in vitro ADME", "conditions": "Group D permeabilized enterocytes with cofactors compared with Groups A-C (intact ± cofactors, permeabilized without cofactors)", "experimental": "The assay was performed essentially as disclosed in Example 2, wherein the in vitro reagent comprises enterocytes and exogenous drug metabolizing enzyme co-factors (NADPH, UPGA, and PAPS), herein referred to as “cofactors”. As comparators, intact enterocytes, that were not permeabilized, were used wherein one group was incubated with cofactors and another group was incubated without cofactors, each in the presence of the xenobiotic test compound. Permeabilized enterocytes incubated without cofactors were used as a control. The test groups were: Group A—intact enterocytes incubated without cofactors; Group B—intact enterocytes incubated with cofactors; Group C—permeabilized enterocytes incubated without cofactors (control); Group D—the in vitro reagent (permeabilized enterocytes incubated with cofactors). […] Permeabilization (by freezing without cryoprotectants followed by thawing) allows maximal interaction of the intracellular enzymes with the substrate (7-ethoxycoumarin), and the addition of cofactors overcomes the dilution of intracellular cofactors due to permeabilization."}, "[1]": {"system": "permeabilized human hepatocytes", "quoted_text": "The drugs evaluated were added at a concentration of 1 μM to a hepatocyte culture of 1 million cells/ml."}, "[2]": {"conditions": "known in vivo hepatic clearance, human; cited from earlier work"}, "2J2": {"biological_target": "T1, 2J2 (Homo sapiens, UniProt P51589)", "T1 construct": "enterocytes are isolated from human intestines by collagenase digestion; endogenous in cells; host or cells: primary human enterocytes, intact or permeabilized with cofactors", "T1 sequence (P51589 1-502)": "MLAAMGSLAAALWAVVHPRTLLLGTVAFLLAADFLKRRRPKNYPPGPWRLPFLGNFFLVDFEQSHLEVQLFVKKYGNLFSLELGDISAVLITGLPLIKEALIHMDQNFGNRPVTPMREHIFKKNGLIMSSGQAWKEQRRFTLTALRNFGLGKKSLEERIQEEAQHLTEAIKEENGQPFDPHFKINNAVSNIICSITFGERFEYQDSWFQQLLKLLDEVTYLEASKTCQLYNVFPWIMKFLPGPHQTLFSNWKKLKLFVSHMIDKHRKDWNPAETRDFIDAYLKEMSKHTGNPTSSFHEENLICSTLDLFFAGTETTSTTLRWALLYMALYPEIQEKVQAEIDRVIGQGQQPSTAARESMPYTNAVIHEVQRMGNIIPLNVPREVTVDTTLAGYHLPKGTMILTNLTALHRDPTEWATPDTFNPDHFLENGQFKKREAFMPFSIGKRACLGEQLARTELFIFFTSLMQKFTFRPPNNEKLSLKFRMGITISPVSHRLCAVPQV", "experiment": "Pathway-selective substrate metabolism in human enterocytes, 2J2", "format": "in vitro ADME", "conditions": "Intact Cryopreserved Enterocytes; 30 min, 37° C."}, "[3]": {"system": "permeabilized human hepatocytes", "experiment": "Cofactor-directed metabolic pathway selection of coumarin metabolism", "format": "in vitro ADME", "conditions": "75 micromolar coumarin, 30 min", "experimental": "Intact human hepatocytes allow metabolism of a drug by all hepatic pathways, selection of a specific metabolic pathway for evaluation is not easily accomplished. […] The metabolism of coumarin was used as a model for cofactor directed metabolic pathway selection. See FIG. 12 for the co-factor directed pathway selection of coumarin metabolism with the present permeabilized human hepatocytes. The exogenous drug metabolizing enzyme co-factors used were 2 mM NADPH, 2 mM NADPH+1 mM PAPS and 2 mM NADPH+5 mM […], and no cofactor addition used as a control."}},
  "note": "Where two headings read alike, the source gives them in different places.",
  "data": [
    {"smiles": "CCOc1ccc2ccc(=O)oc2c1", "note": "[7-ethoxycoumarin]", "values": [
      {"measurement": "7-ethoxycoumarin O-deethylation (ECOD) activity", "setting": "human enterocytes", "result": "Highest activity"}
    ]},
    {"smiles": "COc1ccc2c(c1)[C@]13CCCC[C@@H]1[C@H](C2)N(C)CC3", "note": "[Dextromethorphan]", "values": [
      {"measurement": "Permeabilized Hepatocytes Average (predicted clearance)", "setting": "[1]", "result": 7.3},
      {"measurement": "Observed in vivo CIsys", "setting": "[2]", "result": 8.6, "unit": "mL/min/kg"}
    ]},
    {"smiles": "CC(C)NCC(O)COc1ccc(CCOCC2CC2)cc1", "note": "(stereo not drawn) [Betaxolol]", "values": [
      {"measurement": "Observed in vivo CIsys", "setting": "[2]", "result": 4.8, "unit": "mL/min/kg"}
    ]},
    {"smiles": "NC(=O)N1c2ccccc2C=Cc2ccccc21", "note": "[Carbamazepine]", "values": [
      {"measurement": "Observed in vivo CIsys", "setting": "[2]", "result": 0.4, "unit": "mL/min/kg"}
    ]},
    {"smiles": "COc1ccc(CCN2CCC(Nc3nc4ccccc4n3Cc3ccc(F)cc3)CC2)cc1", "note": "[Astemizole]", "values": [
      {"measurement": "Metabolic Activity, O-Demethyl Astemizole formation", "setting": "2J2", "result": "BLQ"}
    ]},
    {"smiles": "O=C(O)Cc1ccccc1Nc1c(Cl)cccc1Cl", "note": "[Diclofenac]", "values": [
      {"measurement": "Observed in vivo CIsys", "setting": "[2]", "result": 4.2, "unit": "mL/min/kg"}
    ]},
    {"smiles": "O=P1(NCCCl)OCCCN1CCCl", "note": "(stereo not drawn) [Ifosfamide]", "values": [
      {"measurement": "cytotoxicity on HEK 293 cells (cellular ATP content)", "setting": "HEK293 cells", "result": "enhanced"}
    ]},
    {"smiles": "O=c1ccc2ccccc2o1", "note": "[coumarin]", "values": [
      {"measurement": "Cofactor selection Result (metabolite formation)", "setting": "[3]; NADPH only (2 mM)", "result": "minimal sulfation and glucuronidation"},
      {"measurement": "Cofactor selection Result (metabolite formation)", "setting": "[3]; No co-factors", "result": "No metabolism"}
    ]},
    {"smiles": "Cc1cc(=O)n(-c2ccccc2)n1C", "note": "[Antipyrine]", "values": [
      {"measurement": "Observed in vivo CIsys", "setting": "[2]", "result": 0.5, "unit": "mL/min/kg"}
    ]},
    {"smiles": "CN1C(=O)CN=C(c2ccccc2)c2cc(Cl)ccc21", "note": "[Diazepam]", "values": [
      {"measurement": "Observed in vivo CIsys", "setting": "[2]", "result": 0.4, "unit": "mL/min/kg"}
    ]},
    {"smiles": "CN(C)C/C=C/C(=O)Nc1cc2c(Nc3ccc(F)c(Cl)c3)ncnc2cc1O[C@H]1CCOC1", "note": "[Afatinib]", "values": [
      {"measurement": "Observed in vivo CIsys", "setting": "[2]", "result": 15, "unit": "mL/min/kg"}
    ]},
    {"smiles": "O=C1Nc2ccc(Cl)cc2C(c2ccccc2Cl)=NC1O", "note": "(stereo not drawn) [Lorazepam]", "values": [
      {"measurement": "Observed in vivo CIsys", "setting": "[2]", "result": 1.1, "unit": "mL/min/kg"}
    ]},
    {"smiles": "O=P1(N(CCCl)CCCl)NCCCO1", "note": "(stereo not drawn) [Cyclophosphamide]", "values": [
      {"measurement": "cytotoxicity on HEK 293 cells (cellular ATP content)", "setting": "HEK293 cells; with permeabilized human hepatocytes (cofactor supplemented) vs boiled or no hepatocytes, 24 hours", "result": "enhanced"}
    ]}
  ]
}
